In ChEMBL document CHEMBL3400017, “3-Anhydro-6-hydroxy-ophiobolin A, a fungal sesterterpene from Bipolaris oryzae induced autophagy and promoted the degradation of α-synuclein in PC12 cells” (Bioorg Med Chem Lett, 2015):
Active and inactive are the calls of the source. The rule behind the calls is not given here.

Key:
HeLa [1] = assay: Induction of LC3 autophagy in human HeLa cells stably expressing GFP-LC3 assessed as increasing number of punctuate GFP-LC3 dots at 10 uM after 6 hrs by confocal microscopy; assay type: functional, cell-based
HeLa [2] = assay: Induction of LC3 autophagy in human HeLa cells stably expressing GFP-LC3 assessed as increase of the LC3-II level at 10 uM after 6 hrs by immunoblotting; assay type: functional, cell-based
U2OS = assay: Induction of LC3 autophagy in human U2OS cells stably expressing GFP-LC3 assessed as increasing number of punctuate GFP-LC3 dots at 10 uM after 6 hrs by confocal microscopy; assay type: functional, cell-based
SH-SY5Y = assay: Induction of LC3 autophagy in human SH-SY5Y cells stably expressing GFP-LC3 assessed as increasing number of punctuate GFP-LC3 dots at 10 uM after 6 hrs by confocal microscopy; assay type: functional, cell-based
HeLa [3] = assay: Induction of LC3 autophagy in human HeLa cells stably expressing GFP-LC3 assessed as increasing number of punctuate GFP-LC3 dots after 6 to 24 hrs by confocal microscopy; assay type: functional, cell-based
HeLa [4] = assay: Induction of LC3 autophagy in human HeLa cells stably expressing GFP-LC3 assessed as increasing number of punctuate GFP-LC3 dots at 5 to 10 uM by confocal microscopy; assay type: functional, cell-based; settings: TDE = time-dependent effect
HeLa [5] = assay: Induction of LC3 autophagy in human HeLa cells stably expressing GFP-LC3 assessed as increase of the LC3-II level after 12 to 24 hrs by Western blotting analysis; assay type: functional, cell-based
HeLa [6] = assay: Induction of LC3 autophagy in human HeLa cells stably expressing GFP-LC3 assessed as increase of the LC3-II level at 1 to 20 uM by Western blotting analysis; assay type: functional, cell-based; settings: TDE = time-dependent effect
HeLa [7] = assay: Induction of LC3 autophagy in human HeLa cells stably expressing GFP-LC3 assessed as increasing number of punctuate GFP-LC3 dots at 10 uM after 6 hrs by confocal microscopy in presence of bafilomycin A1; assay type: functional, cell-based
HeLa [8] = assay: Induction of LC3 autophagy in human HeLa cells stably expressing GFP-LC3 assessed as increase of the LC3-II level at 10 uM after 6 hrs by Western blotting analysis in presence of bafilomycin A1; assay type: functional, cell-based
HeLa [9] = assay: Induction of LC3 autophagy in ATG5 KO human HeLa cells stably expressing GFP-LC3 assessed as increase of the LC3-II level at 10 uM after 6 hrs by Western blotting analysis; assay type: functional, cell-based
HeLa [10] = assay: Induction of LC3 autophagy in ATG5 KO human HeLa cells stably expressing GFP-LC3 assessed as increasing number of punctuate GFP-LC3 dots at 10 uM after 6 hrs by confocal microscopy; assay type: functional, cell-based
HeLa [11] = assay: Induction of LC3 autophagy in Beclin1 KO human HeLa cells stably expressing GFP-LC3 and transfected of Beclin2 siRNA assessed as increase of the LC3-II level at 10 uM after 6 hrs by Western blotting analysis; assay type: functional, cell-based
HeLa [12] = assay: Induction of LC3 autophagy in Beclin1 KO human HeLa cells stably expressing GFP-LC3 assessed as increase of the LC3-II level at 10 uM after 6 hrs by Western blotting analysis; assay type: functional, cell-based
HeLa [13] = assay: Induction of mitochondrial dysfunction in human HeLa cells at 10 uM after 6 hrs using anti-Tim23 antibody by confocal microscopy; assay type: functional, cell-based
HeLa [14] = assay: Induction of mitochondrial dysfunction in human HeLa cells at 10 uM after 6 to 24 hrs using anti-Tom20 and anti-Tim23 antibodies by Western blotting; assay type: functional, cell-based
HeLa [15] = assay: Induction of mitochondrial dysfunction in human HeLa cells assessed as reduction in mitochondrial mass at 10 uM after 6 to 24 hrs using anti-Tom20 and anti-Tim23 antibodies by Western blotting; assay type: functional, cell-based
HeLa [16] = assay: Induction of mitochondrial dysfunction in human HeLa cells stably expressing GFP-LC3 at 10 uM after 6 to 24 hrs using anti-Tim23 antibodies by Western blotting; assay type: functional, cell-based
HeLa [17] = assay: Induction of mitochondrial dysfunction in human HeLa cells stably expressing GFP-LC3 assessed as loss of mitochondrial membrane potential at 10 uM after 6 to 24 hrs using TMRE staining by confocal microscopy; assay type: functional, cell-based
HeLa [18] = assay: Induction of mitochondrial dysfunction in human HeLa cells stably expressing GFP-LC3 assessed as loss of mitochondrial membrane potential at 10 uM after 6 to 24 hrs using TMRE staining by flow cytometry; assay type: functional, cell-based
HeLa [19] = assay: Induction of cytosolic ROS production in human HeLa cells at 5 to 10 uM after 24 hrs using DCF by flow cytometry; assay type: functional, cell-based
HeLa [20] = assay: Induction of mitochondrial ROS production in human HeLa cells at 5 to 10 uM after 24 hrs using Mito-SOX by flow cytometry; assay type: functional, cell-based
HeLa [21] = assay: Induction of ROS production in human HeLa cells stably expressing GFP-LC3 assessed as increasing number of punctuate GFP-LC3 dots at 5 to 10 uM after 6 hrs by confocal microscopy in presence of ROS scavenger NAC; assay type: functional, cell-based
HeLa [22] = assay: Induction of ROS production in human HeLa cells stably expressing GFP-LC3 assessed as increase of the LC3-II level at 5 to 10 uM after 6 hrs by Western blot analysis in presence of ROS scavenger NAC; assay type: functional, cell-based
[23] = target: T1, c-Jun N-terminal kinase, JNK (Homo sapiens) (UniProt P45983+P53779+P45984); assay: Induction of JNK phosphorylation in human HeLa cells stably expressing GFP-LC3 assessed as punctuate GFP-LC3 formation at 5 uM after 6 hrs by confocal microscopy; assay type: cell-based
[24] = target: T1, c-Jun N-terminal kinase, JNK (Homo sapiens); assay: Induction of JNK phosphorylation in human HeLa cells stably expressing GFP-LC3 assessed as increase of the LC3-II level at 5 uM after 6 hrs by Western blot analysis; assay type: cell-based
PC-12 [25] = assay: Induction of autophagic degradation of alpha-synuclein in rat PC12 cells cotransfected with GFP-LC3 assessed as co-localiztion of alpha-synuclein with GFP-LC3 puncta by confocal microscopy; assay type: functional, cell-based
PC-12 [26] = assay: Induction of autophagic degradation of alpha-synuclein in rat PC12 cells cotransfected with GFP-LC3 and alpha-synuclein-myc assessed as reduction in protein level at 10 uM after 12 hrs by Western blot analysis; assay type: functional, cell-based
PC-12 [27] = assay: Induction of autophagic degradation of alpha-synuclein in rat PC12 cells cotransfected with GFP-LC3 and alpha-synuclein-myc at 10 uM after 12 hrs by Western blot analysis in presence of bafilomycin A1; assay type: functional, cell-based
PC-12 [28] = assay: Induction of autophagic degradation of alpha-synuclein in […] KO rat PC12 cells cotransfected with GFP-LC3 and alpha-synuclein-myc at 10 uM after 12 hrs by Western blot analysis; assay type: functional, cell-based
[29] = target: T1, c-Jun N-terminal kinase, JNK (Homo sapiens); assay: Induction of JNK phosphorylation in human HeLa cells stably expressing GFP-LC3 assessed as punctuate GFP-LC3 formation at 5 uM after 6 hrs by confocal microscopy in presence of SP600125; assay type: cell-based
[30] = target: T1, c-Jun N-terminal kinase, JNK (Homo sapiens); assay: Induction of JNK phosphorylation in human HeLa cells stably expressing GFP-LC3 assessed as increase of the LC3-II level at 5 uM after 6 hrs by Western blot analysis in presence of SP600125; assay type: cell-based
HeLa [31] = assay: Induction of autophagy in human HeLa cells stably expressing GFP-LC3 assessed as increasing number of punctuate GFP-LC3 dots by high-throughput screening; assay type: functional, cell-based

`CC(C)=C[C@H]1C[C@H](C)[C@]2(CC[C@]3(C)C[C@@H]4C(C)=CC(=O)[C@@H]4/C(C=O)=C\C[C@H]32)O1` was tested, and the Activity (HeLa [1]) was “inactive”.
`CC(C)=C[C@H]1C[C@H](C)[C@]2(CC[C@]3(C)C[C@@H]4C(C)=CC(=O)[C@]4(O)/C(C=O)=C\C[C@H]32)O1` was tested, and the Activity (HeLa [2]) was “Active”, the Activity (U2OS) was “Active” and the Activity (SH-SY5Y) was “Active”. For the same molecule, the Activity (HeLa [3]) was “Dose-dependent effect”, the Activity (HeLa [4]) was “tde” and the Activity (HeLa [5]) was “Dose-dependent effect”. The Activity (HeLa [6]) was “tde”, the Activity (HeLa [7]) was “Active” and the Activity (HeLa [8]) was “Active”. The Activity (HeLa [9]) was “inactive”, the Activity (HeLa [10]) was “inactive” and the Activity (HeLa [11]) was “inactive”. For the same molecule, the Activity (HeLa [12]) was “Active”, the Activity (HeLa [13]) was “Active” and the Activity (HeLa [14]) was “inactive”. The Activity (HeLa [15]) was “inactive”, the Activity (HeLa [16]) was “inactive” and the Activity (HeLa [17]) was “Active”. The Activity (HeLa [18]) was “Active”, the Activity (HeLa [19]) was “Active” and the Activity (HeLa [20]) was “Active”. The Activity (HeLa [21]) was “inactive”, the Activity (HeLa [22]) was “inactive” and the Activity [23] was “Active”. The Activity [24] was “Active”, the Activity (PC-12 [25]) was “Active” and the Activity (PC-12 [26]) was “Active”. The Activity (PC-12 [27]) was “inactive”, the Activity (PC-12 [28]) was “inactive” and the Activity [29] was “inactive”. For the same molecule, the Activity [30] was “inactive”, the Activity (HeLa [31]) was “Active” and the Activity (HeLa [1]) was “Active”.
